Results published in US20190192524A1, “Modulators of Caspase-6” (The University of British Columbia, priority 2014, published 2019).

What was measured:
recombinant caspase-6 = target: T1, recombinant caspase-6 (Homo sapiens, UniProt P55212); test: Simultaneous caspase-6 cleavage and 586 fragment detection by FRET; format: biochemical; conditions: cell-free; Htt substrate from COS-7 cell lysates
T1 construct: purchased BioMol
T1 sequence (P55212 24-293): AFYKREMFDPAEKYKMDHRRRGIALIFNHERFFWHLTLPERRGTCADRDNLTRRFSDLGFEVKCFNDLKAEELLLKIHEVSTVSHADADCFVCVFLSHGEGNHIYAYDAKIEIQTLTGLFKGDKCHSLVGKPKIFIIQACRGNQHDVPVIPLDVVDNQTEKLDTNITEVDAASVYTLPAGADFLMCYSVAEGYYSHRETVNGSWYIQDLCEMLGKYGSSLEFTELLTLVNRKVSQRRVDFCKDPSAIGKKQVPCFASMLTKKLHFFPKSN
Protocol: Different concentrations of the PG3 compounds were incubated with the Htt protein and the caspase-6 enzyme. The Htt substrate from COS-7 cell lysates is cleaved by caspase 6 and fragments are detected by FRET between the N-terminal BKP1 antibody and the neo-epitope antibody against amino acid 586.
COS-7 cells were grown in DMEM supplemented with 10% fetal bovine serum, 1%/penicillin/streptomycin and 0.5% glutamine. Transfections were performed using the Fugene reagent (Roche) according to manufacturer's instructions. The transfected DNA encodes amino acids 1-1212 of the human Htt protein with 15 glutamines and a C-terminal HA-tag, under control of a CMV promoter (Warby, 2008, supra; Wellington et al., 2000. J Biol Chem 275:19831-19838). The construct that was transfected is 4c Htt, which contains D→A mutations at amino acids 513, 530, 552 and […] (SEQ ID NO: 1). 24 h after transfection, cells were harvested by trypsinization, pellets washed in PBS and lysed by suspension in lysis buffer (50 mM Tris pH 8, 150 mM NaCl, 1% Igepal, supplemented with 1× complete protease inhibitor (Roche) and 4 mM Pefabloc). Lysates were incubated on ice for 10 min, vortexed and sonicated for 4 sec before centrifugation at 21,000×g for 10 min at 4° C. Supernatants were saved, protein concentration determined with the Biorad DC assay and stored at −80° C. until use.
Dilution series of cell lysates and caspase-6 (2.2× final concentration) were prepared in FRET cleavage buffer (10 mM HEPES pH 7.4, 100 mM NaCl, 0.05% gelatin, 0.1% CHAPS, 2 mM DTT) since this buffer was previously found to best stabilize caspase-6 in dilute form at room temperature. For negative controls, 22 μM zVAD-fmk was added to the caspase-6 dilutions.
Tb-labelled BKP1 antibody and D2-labelled 586 antibody (Cisbio) were diluted to 1 ng/μl (Tb) and 10 ng/μl (D2) in FRET cleavage buffer and pre-mixed at a 1:1 ratio.
In each well of a white 384 well plate (Nunc), 10 μl cell lysate were mixed with 10 μl caspase and 2 μl antibody mix, the plate was centrifuged briefly and incubated in the Victor 3 multilabel plate reader (Perkin Elmer) at 37° C. FRET was measured every 30 min for up to 2 h with the following settings: Excitation: 340 nm, Emission 1: 615 nm, Emission 2: 665 nm, 50 μs delay, 200 μs window time, 2000 μs cycle time. To obtain the final FRET signal, the ratio between Emission 2/Emission 1 (D2/Tb signal) was calculated. After 2 h at 37° C., the assay plate was sealed and after further incubation at 4° C. for 20 h, the FRET signal was read again.

caspase-6 = target: T2, caspase-6 (Mus musculus, UniProt O08738); test: Lamin A cleavage in primary cortical neuronal culture treated with camptothecin; format: cell-based, FVB/N mice; conditions: 10 uM compound; 10 uM camptothecin for 30 h
T2 construct: endogenous in cells; host or cells: primary cortical neurons from FVB/N mice
T2 sequence (O08738 6-276): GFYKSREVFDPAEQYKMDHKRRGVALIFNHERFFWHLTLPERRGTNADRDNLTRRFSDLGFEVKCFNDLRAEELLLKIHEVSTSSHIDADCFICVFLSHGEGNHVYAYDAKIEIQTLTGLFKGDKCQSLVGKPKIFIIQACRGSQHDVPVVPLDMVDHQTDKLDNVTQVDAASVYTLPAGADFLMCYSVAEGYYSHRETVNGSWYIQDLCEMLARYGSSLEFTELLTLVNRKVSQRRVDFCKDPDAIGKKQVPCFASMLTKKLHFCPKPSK
Protocol: Cortical neuronal cultures from FVB mice were prepared as described (Metzler et al, J Neurosci (2007) 27(9):2298). At day 10 in vitro, cells were treated with camptothecin, and after 30 h harvested by scraping in PBS supplemented with 1× complete protease inhibitor (Roche) and 4 mM Pefabloc. Cells were lysed by suspension in lysis buffer (50 mM Tris pH8, 150 mM NaCl, 1% Igepal, supplemented with 1× complete protease inhibitor (Roche) and 4 mM Pefabloc). Lysates were incubated on ice for 10 min, vortexed and sonicated for 4 sec before centrifugation at 21 000×g for 10 min at 4° C. Supernatants were saved, protein concentration determined with the Biorad DC assay and quantitative assessment of cleaved lamin A in neuronal lysates was performed with the Mesoscale ELISA method as described in Ehrnhoefer et al. PLoS One, 2011. 6(11):e27680.
Next, it was determined whether the PG-3d compound could inhibit caspase-6 within neuronal cells in an in vitro neuronal system which may be more relevant for the testing of therapeutics for neurodegeneration. Briefly, primary cortical neuronal cultures from FVB/N mice were treated with 10 uM camptothecin for 30 h starting at DIV10 in the presence or absence of 10 uM of the PG-3d compound.

primary cortical neurons = test: Neuronal viability during excitotoxic (NMDA) stress, intracellular ATP; format: cell-based, FVB/N mice; conditions: 10 uM compound; NMDA 25 uM or 50 uM, 20 h
Protocol: Cortical neuronal cultures from FVB mice were prepared as described (Metzler et al, J Neurosci (2007) 27(9):2298). […] The measurement of intracellular ATP was used as an assessment of neuronal viability as described previously (Uribe et al, HMG 2012. 21(9):1954-67) using the Cell-titer glo kit from Promega according to manufacturer's instructions.
It has been previously been shown in HD animal models that neuronal cells expressing mHTT have an increased vulnerability to excitotoxic stress (Graham et al. 2005. Neurobiol. Dis. 21:444-455) and that this may be mediated by caspase 6 (Graham et al. 2006. Cell 6(13):1179-1191 and Uribe et al HMG 2012; 21(9):1954-67). The link between NMDA-induced toxicity and other neurodegenerative diseases has been reviewed by Lipton et al., Nat Rev Drug Discovery 2006. 5:160-170. Therefore, the effect of the presence of the PG-3d compound on the ability of neuronal cells to survive during excitotoxic stress via its ability to inhibit the caspase-6 enzyme was investigated.

O=c1oc(C#Cc2ccccc2)nc(O)c1Cc1ccccc1 [PG-3d, 5-Benzyl-4-hydroxy-2-(phenylethynyl)-6H-1,3-oxazin-6-one]
IC50 (recombinant caspase-6): 5.6 µM | caspase-6 activity (cleaved lamin A) (caspase-6): significantly reduces | cell viability (intracellular ATP) (primary cortical neurons): significant improvement
